Assay results reported in patent US10934312B2, “Tricyclic heterocycle compounds useful as HIV integrase inhibitors” (Merck Sharp & Dohme Corp., priority 2016, dated 2021).

What follows are compounds tested on HIV-1 (NL4-3 strain) (assay: Assay for Inhibition of HIV Replication (VIKING, MT4-gag-GFP reporter cells)). Conditions: 0% normal human serum; MT4-GFP cells infected with HIV-1 NL4-3; infected cells at 48 h / 24 h; read-out: VIKING IP50 (nM) with 0% NHS.
Assay type: cell-based
Method: This assay may be useful for assessing the ability of a compound of the present invention to inhibit HIV replication. The assay is a kinetic assay that employs a reporter cell line (MT4-gag-GFP) to quantify the number of new cells infected in each round of replication.
MT4-GFP cells (250,000 cells/ml) are bulk-infected with HIV-1 (NL4-3 strain) at low multiplicity of infection (MOI) in RPMI+10% FBS for 24 hours. Cells are then washed once in RPMI+10% FBS and resuspended in RPMI+0% normal human serum (NHS). Test compounds are serial-diluted in DMSO on ECHO. The infected MT4-GFP cells are added to a 384-well poly-D-lysine coated black plate with clear bottom in which the diluted test compounds are placed. The cells are seeded at 8,000 cells per well and the final DMSO concentration is adjusted to 0.4%. The infected cells (Green GFP cells) are then quantified at both 24 and 48 hours post incubation using Acumen eX3. Viral reproductive ratio (R0) is determined using the number of infected cells at 48 hours divided by the number of infected cells at 24 hours. Percent viral growth inhibition is calculated by [1-(R—Rtripledrug)/(RDMSO—Rtripledrug)]*100. Compound potency IP or IC50 may be determined using a 4-parameter dose response curve analysis.

Row | SMILES | IC50
1 | COCCN1CN2CC(OC)c3c(C(=O)NCc4ccc(F)c(Cl)c4F)c(=O)c(O)c(n32)C1=O (single isomer, unassigned) [Compound 11] | 1.1 nM
2 | COCCN1CN2CC(OC)c3c(C(=O)NCc4cccc(Cl)c4F)c(=O)c(O)c(n32)C1=O (single isomer, unassigned) [Compound 12] | 2.3 nM
3 | COC1CN2n3c(c(O)c(=O)c(C(=O)NCc4ccc(F)cc4F)c31)C(=O)N(C)C21CCOC1 (stereo not drawn) [Compound 37] | 8.5 nM
4 | CCN1CN2CC(OC)c3c(C(=O)NCc4ccc(F)c(Cl)c4F)c(=O)c(O)c(n32)C1=O (single isomer, unassigned) [Compound 25] | 0.9 nM
5 | COC1CN2CN(C)C(=O)c3c(O)c(=O)c(C(=O)NCc4cccc(Cl)c4F)c1n32 (single isomer, unassigned) [Compound 30] | 1.5 nM
6 | COCCN1CN2CC(OC)c3c(C(=O)NCc4ccc(F)cc4)c(=O)c(O)c(n32)C1=O (single isomer, unassigned) [Compound 14] | 4.6 nM
7 | COC1CN2n3c(c(O)c(=O)c(C(=O)NCc4ccc(F)cc4F)c31)C(=O)N(C)C21CCOC1 (stereo not drawn) [Compound 40] | 3.8 nM
8 | CCN1CN2CC(OC)c3c(C(=O)NCc4cccc(Cl)c4F)c(=O)c(O)c(n32)C1=O (single isomer, unassigned) [Compound 27] | 1.2 nM
9 | COCCN1CN2CC(OC)c3c(C(=O)NCc4ccc(F)cc4)c(=O)c(O)c(n32)C1=O (single isomer, unassigned) [Compound 15] | 1.9 nM
10 | COCCN1CN2CC(OC)c3c(C(=O)NCc4cccc(Cl)c4F)c(=O)c(O)c(n32)C1=O (single isomer, unassigned) [Compound 13] | 1 nM
11 | COC1CN2CN(CC3CC3)C(=O)c3c(O)c(=O)c(C(=O)NCc4cccc(Cl)c4F)c1n32 (single isomer, unassigned) [Compound 20] | 1.2 nM
12 | COC1CN2n3c(c(O)c(=O)c(C(=O)NCc4ccc(F)cc4F)c31)C(=O)N(C)C21CCOC1 (stereo not drawn) [Compound 39] | 2.4 nM
13 | COC1CN2CN(C)C(=O)c3c(O)c(=O)c(C(=O)NCc4cccc(Cl)c4F)c1n32 (single isomer, unassigned) [Compound 31] | 0.5 nM
14 | COC1CN2CN(C)C(=O)c3c(O)c(=O)c(C(=O)NCc4ccc(F)c(Cl)c4)c1n32 (single isomer, unassigned) [Compound 33] | 0.8 nM

Same assay, conditions: Human immunodeficiency virus 1, NL43, 0% normal human serum; MT4-GFP cells infected with HIV-1 NL4-3; infected cells at 48 h / 24 h; read-out: VIKING IP50 (nM) with 0% NHS

Row | SMILES | IC50
15 | CCN1CN2CC(OC)c3c(C(=O)NCc4ccc(F)cc4F)c(=O)c(O)c(n32)C1=O (single isomer, unassigned) [Compound 23] | 4.1 nM
16 | CC(C)N1CN2C(=O)N(C)Cc3c(C(=O)NCc4ccc(F)cc4F)c(=O)c(O)c(n32)C1=O [Compound 4] | 2 nM
17 | COCCN1CN2CC(OC)c3c(C(=O)NCc4ccc(F)c(Cl)c4F)c(=O)c(O)c(n32)C1=O (single isomer, unassigned) [Compound 10] | 1.4 nM
18 | COC1CN2CN(CC3CC3)C(=O)c3c(O)c(=O)c(C(=O)NCc4cccc(Cl)c4F)c1n32 (single isomer, unassigned) [Compound 19] | 2.4 nM
19 | CN1CN2CCc3c(C(=O)NCc4c(F)cc(F)cc4F)c(=O)c(O)c(n32)C1=O [Compound 41] | 2.9 nM
20 | CCN1CN2CCc3c(C(=O)NCc4ccc(F)cc4F)c(=O)c(O)c(n32)C1=O [Compound 35] | 2.2 nM
21 | COC1CN2n3c(c(O)c(=O)c(C(=O)NCc4ccc(F)cc4F)c31)C(=O)N(C)C21CCOC1 (stereo not drawn) [Compound 38] | 2.6 nM
22 | COCCN1CN2C(=O)N(C)Cc3c(C(=O)NCc4ccc(F)cc4F)c(=O)c(O)c(n32)C1=O [Compound 5] | 1.7 nM
23 | CCN1CN2CC(OC)c3c(C(=O)NCc4ccc(F)c(Cl)c4F)c(=O)c(O)c(n32)C1=O (single isomer, unassigned) [Compound 24] | 1.5 nM
24 | COC1CN2CN(C)C(=O)c3c(O)c(=O)c(C(=O)NCc4ccc(F)c(Cl)c4)c1n32 (single isomer, unassigned) [Compound 32] | 1.2 nM
25 | COC1CN2CN(C)C(=O)c3c(O)c(=O)c(C(=O)NCc4ccc(F)cc4F)c1n32 (single isomer, unassigned) [Compound 29] | 9.9 nM
26 | COCCN1CN2CC(OC)c3c(C(=O)NCc4ccccc4F)c(=O)c(O)c(n32)C1=O (single isomer, unassigned) [Compound 16] | 1.5 nM
27 | CN1CN2CCc3c(C(=O)NCc4ccc(F)cc4F)c(=O)c(O)c(n32)C1=O [Compound 42] | 1.6 nM
28 | COC1CN2CN(C(C)C)C(=O)c3c(O)c(=O)c(C(=O)NCc4ccc(F)cc4F)c1n32 (stereo not drawn) [Compound 7] | 13.3 nM
29 | COC1CN2CN(CC3CC3)C(=O)c3c(O)c(=O)c(C(=O)NCc4ccc(F)c(Cl)c4)c1n32 (single isomer, unassigned) [Compound 21] | 1 nM
30 | COC1CN2CN(CC3CC3)C(=O)c3c(O)c(=O)c(C(=O)NCc4ccc(F)cc4F)c1n32 (single isomer, unassigned) [Compound 18] | 0.4 nM
31 | CCN1CN2CC(OC)c3c(C(=O)NCc4ccc(F)cc4F)c(=O)c(O)c(n32)C1=O (stereo not drawn) [Compound 22] | 2.1 nM
32 | CCN1CN2CCCc3c(C(=O)NCc4ccc(F)cc4F)c(=O)c(O)c(n32)C1=O [Compound 36] | 11.4 nM
33 | CCN1Cn2ccc3c(C(=O)NCc4ccc(F)cc4F)c(=O)c(O)c(n32)C1=O [Compound 34] | 11.5 nM
34 | COCCN1CN2CC(OC)c3c(C(=O)NCc4ccc(F)cc4F)c(=O)c(O)c(n32)C1=O (single isomer, unassigned) [Compound 9] | 1.4 nM
35 | CN1CN2CCc3c(C(=O)NCc4c(F)ccc(Cl)c4F)c(=O)c(O)c(n32)C1=O [Compound 43] | 1.8 nM
36 | CCN1CN2CC(OC)c3c(C(=O)NCc4cccc(Cl)c4F)c(=O)c(O)c(n32)C1=O (single isomer, unassigned) [Compound 26] | 1.5 nM
